Data taken from patent publication US10093683B2, “Factor XIa inhibitors” (Merck Sharp & Dohme Corp., priority 2014, dated 2018).

Each compound was assayed against human Factor XIa (Homo sapiens (Human), UniProt P03951) (assay: Factor XIa Assay). Details: purified human Factor XIa 40 pM, Z-Gly-Pro-Arg-AFC 100 μM, pH 7.4; read-out: FXIa Ki.
Format: biochemical
Summary of the method: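 Ki derived from the dependence of Vo/Vi on inhibitor concentration under a competitive-inhibition model, after pre-equilibration of enzyme and inhibitor. Reaction: 40 pM human FXIa, 100 μM Z-Gly-Pro-Arg-AFC, HEPES 50 mM pH 7.4 with NaCl, CaCl2 and PEG 8000; run at room temperature or 37° C.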

Sequence of human Factor XIa (P03951 388-625): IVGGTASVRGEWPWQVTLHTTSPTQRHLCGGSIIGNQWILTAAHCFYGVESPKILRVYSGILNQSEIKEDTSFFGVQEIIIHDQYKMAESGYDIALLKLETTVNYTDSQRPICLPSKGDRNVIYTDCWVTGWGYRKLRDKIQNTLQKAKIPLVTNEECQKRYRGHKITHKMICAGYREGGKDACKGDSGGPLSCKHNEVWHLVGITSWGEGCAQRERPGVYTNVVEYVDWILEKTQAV
Sequence of human Factor XIa (P03951 19-387 partner): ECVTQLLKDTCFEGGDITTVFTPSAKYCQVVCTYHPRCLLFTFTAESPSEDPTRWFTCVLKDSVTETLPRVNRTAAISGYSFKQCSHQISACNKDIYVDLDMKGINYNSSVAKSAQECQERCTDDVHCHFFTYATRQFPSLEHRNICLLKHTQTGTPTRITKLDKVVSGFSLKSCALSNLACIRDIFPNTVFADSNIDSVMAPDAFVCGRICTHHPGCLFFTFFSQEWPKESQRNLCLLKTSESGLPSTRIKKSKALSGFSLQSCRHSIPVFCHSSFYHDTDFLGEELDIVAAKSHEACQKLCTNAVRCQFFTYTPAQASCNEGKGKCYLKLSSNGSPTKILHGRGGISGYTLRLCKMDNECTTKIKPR

Going from COC(=O)Nc1ccc(C(=O)N[C@@H](CCN2CCC2)C(=O)N2CC[C@@]3(C2)OC(=O)Nc2ccc(Cl)cc23)cc1 [Example 112, methyl (4-(((S)-4-(azetidin-1-yl)-1-((R)-6-chloro-2-oxo-1,2-dihydrospiro[benzo[d][1,3]oxazine-4,3′-pyrrolidin]-1′-yl)-1-oxobutan-2-yl)carbamoyl)phenyl)carbamate] to O=C1Nc2ccc(Cl)cc2[C@]2(CCN(C(=O)[C@@H](Cc3ccccc3)C(=O)Nc3ccc(C(=O)O)cc3)C2)O1 [Example 121a, 4-((S)-2-benzyl-3-((S)-6-chloro-2-oxo-1,2-dihydrospiro[benzo[d][1,3]oxazine-4,3′-pyrrolidin]-1′-yl)-3-oxopropanamido)benzoic acid], the Ki rises from 219 nM to ≥ 5000 nM. The first binds more tightly here.

Going from O=C1Nc2ccc(Cl)c(F)c2[C@@]2(CCCN(C(=O)[C@H](Cc3cncnc3)NC(=O)c3ccc4[nH]c(=O)ccc4c3)C2)O1 [Example 113, N-((S)-1-((R)-6-chloro-5-fluoro-2-oxo-1,2-dihydrospiro[benzo[d][1,3]oxazine-4,3′-piperidin]-1′-yl)-1-oxo-3-(pyrimidin-5-yl)propan-2-yl)-2-oxo-1,2-dihydroquinoline-6-carboxamide] to O=C1Nc2ccc(Cl)c(F)c2[C@@]2(CCCN(C(=O)[C@H](Cc3cnccn3)NC(=O)c3ccc4[nH]c(=O)ccc4c3)C2)O1 [Example 114, N-((S)-1-((R)-6-chloro-5-fluoro-2-oxo-1,2-dihydrospiro[benzo[d][1,3]oxazine-4,3′-piperidin]-1′-yl)-1-oxo-3-(pyrazin-2-yl)propan-2-yl)-2-oxo-1,2-dihydroquinoline-6-carboxamide], the Ki rises from 15.6 nM to 74.4 nM (4.8-fold).

First: O=C1Nc2ccc(Cl)cc2[C@]2(CCN(C(=O)[C@H](Cc3ccccc3)C(=O)Nc3ccc(C(=O)O)cc3)C2)O1 [Example 121b, 4-((R)-2-benzyl-3-((S)-6-chloro-2-oxo-1,2-dihydrospiro[benzo[d][1,3]oxazine-4,3′-pyrrolidin]-1′-yl)-3-oxopropanamido)benzoic acid]
Second: O=C1Nc2ccc(Cl)cc2[C@@]2(CCN(C(=O)[C@H](Cc3ccccc3)C(=O)Nc3ccc(C(=O)O)cc3)C2)O1 [Example 121c, 4-((R)-2-benzyl-3-((R)-6-chloro-2-oxo-1,2-dihydrospiro[benzo[d][1,3]oxazine-4,3′-pyrrolidin]-1′-yl)-3-oxopropanamido)benzoic acid]
The Ki of the first is higher: ≥ 5000 nM for the first, 439 nM for the second.

Compared with O=C1Nc2ccc(Cl)cc2[C@@]2(CCN(C(=O)[C@@H](Cc3ccccc3)C(=O)Nc3ccc(C(=O)O)cc3)C2)O1 [Example 121d, 4-((S)-2-benzyl-3-((R)-6-chloro-2-oxo-1,2-dihydrospiro[benzo[d][1,3]oxazine-4,3′-pyrrolidin]-1′-yl)-3-oxopropanamido)benzoic acid], COC(=O)Nc1ccc(-c2c[nH]c([C@@H](Cc3ccccc3)C(=O)N3CC[C@@]4(C3)OC(=O)Nc3ccc(Cl)cc34)n2)cc1 [Example 122a, methyl (4-(2-((R)-1-((R)-6-chloro-2-oxo-1,2-dihydrospiro[benzo[d][1,3]oxazine-4,3′-pyrrolidin]-1′-yl)-1-oxo-3-phenylpropan-2-yl)-1H-imidazol-4-yl)phenyl)carbamate] is 110-fold lower in Ki: 3780 nM for the first, 33.6 nM for the second. The second binds more tightly here.

COC(=O)Nc1ccc(-c2c[nH]c([C@H](Cc3ccccc3)C(=O)N3CC[C@]4(C3)OC(=O)Nc3ccc(Cl)cc34)n2)cc1 [Example 122b, methyl (4-(2-((S)-1-((S)-6-chloro-2-oxo-1,2-dihydrospiro[benzo[d][1,3]oxazine-4,3′-pyrrolidin]-1′-yl)-1-oxo-3-phenylpropan-2-yl)-1H-imidazol-4-yl)phenyl)carbamate] and COC(=O)Nc1ccc(-c2c[nH]c([C@@H](Cc3ccccc3)C(=O)N3CC[C@]4(C3)OC(=O)Nc3ccc(Cl)cc34)n2)cc1 [Example 122c, methyl (4-(2-((R)-1-((S)-6-chloro-2-oxo-1,2-dihydrospiro[benzo[d][1,3]oxazine-4,3′-pyrrolidin]-1′-yl)-1-oxo-3-phenylpropan-2-yl)-1H-imidazol-4-yl)phenyl)carbamate] are within 1.5-fold of each other in Ki: 4690 nM for the first, 5000 nM for the second.

COC(=O)Nc1ccc(-c2c[nH]c([C@H](Cc3ccccc3)C(=O)N3CC[C@@]4(C3)OC(=O)Nc3ccc(Cl)cc34)n2)cc1 [Example 122d, methyl (4-(2-((S)-1-((R)-6-chloro-2-oxo-1,2-dihydrospiro[benzo[d][1,3]oxazine-4,3′-pyrrolidin]-1′-yl)-1-oxo-3-phenylpropan-2-yl)-1H-imidazol-4-yl)phenyl)carbamate] and COC(=O)Nc1ccc2[nH]c([C@@H](Cc3ccccc3)C(=O)N3CC[C@@]4(C3)OC(=O)Nc3ccc(Cl)cc34)nc2c1 [Example 131c, methyl (2-((R)-1-((R)-6-chloro-2-oxo-1,2-dihydrospiro[benzo[d][1,3]oxazine-4,3′-pyrrolidin]-1′-yl)-1-oxo-3-phenylpropan-2-yl)-1H-benzo[d]imidazol-5-yl)carbamate] are within 1.5-fold of each other in Ki: 364 nM for the first, 354 nM for the second.

First: O=C1Nc2ccc(Cl)c(F)c2[C@@]2(CCCN(C(=O)C(Cc3ccccc3)c3nc(-c4csc(C(=O)O)c4F)c[nH]3)C2)O1 (stereo partly drawn) [Example 124, 4-(2-(1-((R)-6-chloro-5-fluoro-2-oxo-1,2-dihydrospiro[benzo[d][1,3]oxazine-4,3′-piperidin]-1′-yl)-1-oxo-3-phenylpropan-2-yl)-1H-imidazol-4-yl)-3-fluorothiophene-2-carboxylic acid]
Second: COC(=O)Nc1ccc(-c2ncc(C(Cc3ccccc3)C(=O)N3CC[C@@]4(C3)OC(=O)Nc3ccc(Cl)c(F)c34)[nH]2)cc1 (stereo partly drawn) [Example 130, methyl (4-(5-(1-((R)-6-chloro-5-fluoro-2-oxo-1,2-dihydrospiro[benzo[d][1,3]oxazine-4,3′-pyrrolidin]-1′-yl)-1-oxo-3-phenylpropan-2-yl)-1H-imidazol-2-yl)phenyl)carbamate]
The Ki of the first is 2.3-fold higher: 209 nM for the first, 91.9 nM for the second.

First: O=C1Nc2ccc(Cl)cc2[C@@]2(CCCN(C(=O)C(Cc3ccc(F)cc3)c3nc(Cl)c(-c4ccc(F)cc4)[nH]3)C2)O1 (stereo partly drawn) [Example 127, (4R)-6-chloro-1′-(2-(4-chloro-5-(4-fluorophenyl)-1H-imidazol-2-yl)-3-(4-fluorophenyl)propanoyl)spiro[benzo[d][1,3]oxazine-4,3′-piperidin]-2(1H)-one]
Second: O=C1Nc2ccc(Cl)cc2[C@@]2(CCCN(C(=O)C(Cc3ccc(F)cc3)c3nc(Cl)c(-c4ccc(C(=O)O)cc4)[nH]3)C2)O1 (stereo partly drawn) [Example 128, 4-(4-chloro-2-(1-((R)-6-chloro-2-oxo-1,2-dihydrospiro[benzo[d][1,3]oxazine-4,3′-piperidin]-1′-yl)-3-(4-fluorophenyl)-1-oxopropan-2-yl)-1H-imidazol-5-yl)benzoic acid]
The Ki of the first is 1.8-fold lower: 5000 nM for the first, 8750 nM for the second. The first binds more tightly here.

COC(=O)Nc1ccc(-c2nnc([C@H](Cc3ccccc3)C(=O)N3CC[C@@]4(C3)OC(=O)Nc3ccc(Cl)c(F)c34)o2)cc1 [Example 129A, methyl (4-(5-((S)-1-((R)-6-chloro-5-fluoro-2-oxo-1,2-dihydrospiro[benzo[d][1,3]oxazine-4,3′-pyrrolidin]-1′-yl)-1-oxo-3-phenylpropan-2-yl)-1,3,4-oxadiazol-2-yl)phenyl)carbamate] and COC(=O)Nc1ccc2[nH]c([C@@H](Cc3ccccc3)C(=O)N3CC[C@]4(C3)OC(=O)Nc3ccc(Cl)cc34)nc2c1 [Example 131d, methyl (2-((R)-1-((S)-6-chloro-2-oxo-1,2-dihydrospiro[benzo[d][1,3]oxazine-4,3′-pyrrolidin]-1′-yl)-1-oxo-3-phenylpropan-2-yl)-1H-benzo[d]imidazol-5-yl)carbamate] cannot be ordered by Ki: > 875 nM for the first, 5000 nM for the second.
